Measurements from ChEMBL document CHEMBL4020719, “Synthesis and biological evaluation of novel indole-pyrimidine hybrids bearing morpholine and thiomorpholine moieties” (Eur J Med Chem, 2017).

Tests used:
[1] = test system: MDA-MB-231; assay: Antiproliferative activity against human MDA-MB-231 cells after 48 hrs by MTT assay; type: functional, cell-based; conditions: MDA-MB-231, 48 h
[2] = test system: MCF7; assay: cells; conditions: Homo sapiens, MCF7, 48 h
[3] = test system: HCT-116; assay: Potency index, ratio of CA-4 IC50 to compound IC50 for human HCT116 cells; type: functional
[4] = test system: HeLa; assay: cells; conditions: Homo sapiens, 48 h
[5] = species on record: Sus scrofa; assay: Inhibition of pig brain tubulin polymerization at 10 uM by spectrophotometric analysis
[6] = test system: HEK293; assay: Antiproliferative activity against HEK293 cells after 48 hrs by MTT assay; type: cell-based; conditions: Homo sapiens, HEK293, 48 h
[7] = test system: HCT-116; assay: cells; conditions: Homo sapiens, HCT-116, 48 h
[8] = Inhibition of pig brain tubulin polymerization by spectrophotometric analysis; parameters: species or system Sus scrofa
[9] = test system: HeLa; assay: Cell cycle arrest in human HeLa cells assessed as accumulation at G2/M phase after 12 hrs by FACS analysis; type: functional, cell-based
[10] = test system: HeLa; assay: Cell cycle arrest in human HeLa cells assessed as accumulation at G0/G1 phase at 5 uM after 12 hrs by FACS analysis (reference value: 61.74%); type: functional
[11] = test system: HeLa; assay: Cell cycle arrest in human HeLa cells assessed as accumulation at G0/G1 phase at 1.25 uM after 12 hrs by FACS analysis (reference value: 61.74%); type: functional
[12] = test system: HeLa; assay: Cell cycle arrest in human HeLa cells assessed as accumulation at G2/M phase at 5 uM after 12 hrs by FACS analysis (reference value: 9.12%); type: functional
[13] = test system: HeLa; assay: Cell cycle arrest in human HeLa cells assessed as accumulation at S phase at 5 uM after 12 hrs by FACS analysis (reference value: 29.14%); type: functional
[14] = test system: HeLa; assay: Cell cycle arrest in human HeLa cells assessed as accumulation at S phase at 2.5 uM after 12 hrs by FACS analysis (reference value: 29.14%); type: functional
[15] = test system: HeLa; assay: Cell cycle arrest in human HeLa cells assessed as accumulation at G2/M phase at 1.25 uM after 12 hrs by FACS analysis (reference value: 9.12%); type: functional
[16] = test system: HeLa; assay: Cell cycle arrest in human HeLa cells assessed as accumulation at G2/M phase at 2.5 uM after 12 hrs by FACS analysis (reference value: 9.12%); type: functional
[17] = test system: HeLa; assay: Cell cycle arrest in human HeLa cells assessed as accumulation at G0/G1 phase at 2.5 uM after 12 hrs by FACS analysis (reference value: 61.74%); type: functional
[18] = test system: HeLa; assay: Cell cycle arrest in human HeLa cells assessed as accumulation at S phase at 1.25 uM after 12 hrs by FACS analysis (reference value: 29.14%); type: functional

Structure (SMILES) | IC50 [1] [µM] | IC50 [2] [µM] | IC50 [4] [µM] | inhibition [5] [%] | IC50 [7] [µM] | further results
CCOC(=O)n1c(C(=O)c2ccc(OC)cc2)c(Nc2nc(N3CCOCC3)ncc2[N+](=O)[O-])c2ccccc21 | 3.01 | 2.13 | 5.52 | 19 | 2.99 | Ratio IC50 [3]: 2; IC50 [6]: > 100 µM
O=C(c1ccccc1)c1[nH]c2ccccc2c1Nc1nc(N2CCSCC2)ncc1[N+](=O)[O-] | > 100 | > 100 | > 100 | 2 | > 100 | 
O=C(c1ccccc1)c1[nH]c2cc(Cl)ccc2c1Nc1nc(N2CCOCC2)ncc1[N+](=O)[O-] | > 100 | > 100 | > 100 | 9 | > 100 | 
O=C(c1ccc(Cl)cc1)c1[nH]c2cc(Cl)ccc2c1Nc1nc(N2CCOCC2)ncc1[N+](=O)[O-] | > 100 | 83.7 | > 100 |  | > 100 | 
Cc1ccc2c(Nc3nc(N4CCOCC4)ncc3[N+](=O)[O-])c(C(=O)c3ccc(-c4ccccc4)cc3)[nH]c2c1 | > 100 | 60.4 | 7.46 |  | > 100 | 
O=C(c1ccc(-c2ccccc2)cc1)c1[nH]c2ccccc2c1Nc1nc(N2CCOCC2)ncc1[N+](=O)[O-] | 10.3 | 0.29 | 4.04 | 42 | 9.48 | IC50 [8]: 19.3 µM; IC50 [6]: 78.6 µM
COc1ccc(C(=O)c2[nH]c3ccccc3c2Nc2nc(N3CCSCC3)ncc2[N+](=O)[O-])cc1 | > 100 | > 100 | > 100 |  | > 100 | 
COc1ccc(C(=O)c2[nH]c3ccccc3c2Nc2nc(N3CCOCC3)ncc2[N+](=O)[O-])cc1 | 8.69 | 57.1 | 4.32 | 14 | 6.4 | IC50 [6]: 14.8 µM
O=C(c1cccc(Br)c1)c1[nH]c2ccccc2c1Nc1nc(N2CCOCC2)ncc1[N+](=O)[O-] | 9.42 | 1.42 | 2.51 | 36 | 11.4 | Activity [9]: Dose-dependent effect; Activity [10]: 5.02%; Activity [11]: 53.32%; IC50 [6]: 10.1 µM; Activity [12]: 88.58%; Activity [13]: 6.4%; Activity [14]: 26.35%; Activity [15]: 12.63%; Activity [16]: 58.34%; Activity [17]: 15.31%; Activity [18]: 34.05%
O=C(c1ccccc1)c1[nH]c2ccccc2c1Nc1nc(N2CCOCC2)ncc1[N+](=O)[O-] | 92.6 | 89.2 | 82.5 | 23 | 55.8 | 
O=C(c1ccc(Br)cc1)c1[nH]c2ccccc2c1Nc1nc(N2CCSCC2)ncc1[N+](=O)[O-] | > 100 | > 100 | > 100 |  | > 100 | 
COc1ccc(/C=C\c2cc(OC)c(OC)c(OC)c2)cc1O [COMBRETASTATIN A4] | 270 | 0.041 | 0.23 | 80 | 6.1 | 
CCOC(=O)n1c(C(=O)c2ccccc2)c(Nc2nc(N3CCOCC3)ncc2[N+](=O)[O-])c2ccc(Cl)cc21 | 35.8 | 78.4 | > 100 |  | 80.6 | 
COc1ccc(C(=O)c2[nH]c3cc(C)ccc3c2Nc2nc(N3CCOCC3)ncc2[N+](=O)[O-])cc1 | 89.4 | > 100 | 90.5 |  | 44 | 
Cc1ccc2c(Nc3nc(N4CCOCC4)ncc3[N+](=O)[O-])c(C(=O)c3cccs3)[nH]c2c1 | 93.7 | > 100 | > 100 |  | 39.1 | 
O=C(c1ccc(Br)cc1)c1[nH]c2ccccc2c1Nc1nc(N2CCOCC2)ncc1[N+](=O)[O-] | 34.1 | 85.4 | 54.3 |  | 33.3 | 

The next lines start with results.

IC50 [1] [µM] | IC50 [2] [µM] | IC50 [4] [µM] | inhibition [5] [%] | IC50 [7] [µM] | Structure (SMILES) | further results
> 100 | > 100 | > 100 |  | > 100 | Cc1ccc2c(Nc3nc(N4CCOCC4)ncc3[N+](=O)[O-])c(C(=O)c3ccc(Br)cc3)[nH]c2c1 | 
5.01 | 13.9 | 19.9 | 47 | 17.4 | CN1CCN(c2ncc([N+](=O)[O-])c(Nc3c(C(=O)c4cccs4)[nH]c4cc(Cl)ccc34)n2)CC1 | IC50 [6]: > 100 µM
76.3 | 56.8 | 47.1 |  | 80.6 | Cc1ccc2c(Nc3nc(N4CCOCC4)ncc3[N+](=O)[O-])c(C(=O)c3ccccc3)[nH]c2c1 | 
> 100 | 98.7 | > 100 |  | > 100 | Cc1ccc2c(Nc3nc(N4CCOCC4)ncc3[N+](=O)[O-])c(C(=O)c3ccc(Cl)cc3)[nH]c2c1 | 
> 100 | 69.4 | 94.7 | 19 | > 100 | O=C(c1cccs1)c1[nH]c2cc(Cl)ccc2c1Nc1nc(N2CCOCC2)ncc1[N+](=O)[O-] | 
58.7 | 42.7 | 16.6 |  | > 100 | O=C(c1ccc(-c2ccccc2)cc1)c1[nH]c2cc(Cl)ccc2c1Nc1nc(N2CCOCC2)ncc1[N+](=O)[O-] | 
89.4 | 89.4 | 49.6 |  | 73.5 | O=C(c1[nH]c2ccccc2c1Nc1nc(N2CCOCC2)ncc1[N+](=O)[O-])C1CC1 | 
> 100 | 35 | 47.1 | 14 | 24.4 | COc1ccc(C(=O)c2[nH]c3cc(Cl)ccc3c2Nc2nc(N3CCOCC3)ncc2[N+](=O)[O-])cc1 | 
